Measured values taken from patent US12678433B2, “Compounds for treatment of hemolysis-and inflammasome-associated diseases” (New York Blood Center, Inc., priority 2020, dated 2026).

Tests used:
[1] = tested on: CD27+ memory B cells from healthy donors; test: 7-day stimulated memory B cell culture; format: cell-based, human; settings: different doses of hemin, 7 days
From the text: FIG. 6A-G. Effect of heme on memory plasmablast differentiation and IgG class-switch B cell development. FIG. 6A: Gating strategy for single live B cell analysis after culture. FIG. 6B: Fold change in CD38+ plasmablast cells in 7-day stimulated HD purified CD27+ memory B cells (as described for naïve B cell cultures in FIG. 1) in the presence of different doses of hemin relative to no hemin treatment. FIG. 6C: Histogram showing IgG expression levels in CD38+ plasmablasts from naïve B cell stimulated cultures. FIG. 6D: Fold change of IgG+ cell frequency in CD38+ plasmablasts in the presence of 2.5 μM or 5 μM hemin relative to no hemin treatment in stimulated naïve B cells from HD, Allo(−) and Allo(+) SCD patients. FIG. 6E: Naïve B cells from HD were cultured with 20% SCD patients' sera from Allo(−) or Allo(+) patients and stimulated with B cell activation cocktail for 7 days as described. Frequency of CD38+ plasmablasts is shown. FIG. 6F: Fold change of proliferated B cell frequency (within total, live B cells) in the presence of 2.5 μM or 5 μM hemin relative to no hemin treatment in stimulated naïve B cells from HD, Allo(−) and Allo(+) SCD patients. FIG. 6G: The change and fold change of live cell frequency in total 7-day stimulated HD B cell in the presence of different concentrations of hemin.
Cell isolation and culture.

[2] = tested on: naïve B cells from Allo(−) and Allo(+) SCD patients; test: 7-day stimulated naïve B cell culture from SCD patients; format: cell-based, human; settings: for inhibition of plasmablast B cell differentiation: heme 5 μM
Experimental: Human samples. All studies were approved by the institutional Review Boards of the New York Blood Center (NYBC) and Montefiore Health Center. […] The blood samples from SCD patients were processed within 18 hours after collection. For circulating DOCK8 expression studies in healthy controls, peripheral blood samples from de-identified, race-matched healthy donors were used. Leukocyte enriched products from de-identified healthy donors were used for purification of B cells for in vitro culture studies.
Cell isolation and culture. Peripheral blood mononuclear cells (PBMCs) were prepared by Ficoll (GE Healthcare) density gradient centrifugation from healthy donor leukopak products as well as from sickle peripheral blood apheresis waste bags. Human naïve and memory B cells were isolated from PBMCs using a human memory B Cell Isolation Kit (Miltenyi Biotec) by collecting CD27− B cells (naïve B cells) and CD27+ B cell (memory B cells) separately. […] In addition, heme and various inhibitors were added to the cultures at the start point and incubated for 7 days.
Cultured cells: stimulated B cells were transferred into U bottom 96 well plate and washed with 200 μl MACS buffer (D-PBS containing 0.5% BSA and 2 mM EDTA) at 300×g for 5 min at 4° C. After one wash, cells were stained for surface expression of CD19, CD38, CD27 using 25 μl staining buffer (anti-CD19, CD38, CD27 antibodies, diluted 200 fold with MACS buffer) for 30 min at 4° C. After one wash with 200 μl MACS buffer, cells were resuspended in 100 μl D-PBS and 50 μl Fixable Viability Dye eFluor™ 780 (1000 fold diluted with D-PBS, Thermo Fisher Scientific) was added for dead cell detection for 5 min at room temperature. Cells were washed one time with MACS buffer and 100 μl D-DPS was added just before flow cytometric analysis (LSRFortessa flow cytometer, BD Bioscience). For intracellular staining of IgG, Blimp-1 and HO-1, samples were first washed with 200 μl MACS buffer before addition of 150 μl Fixation/Permeabilization buffer (Thermo Fisher Scientific) for 45 min at 4° C. After fixation, samples were washed twice with 1× Permeabilization buffer (Thermo Fisher Scientific) and stained with 25 μl intracellular staining buffer (anti-human IgG, DOCK8, Blimp-1, HO-1 antibodies, diluted 200 fold with 1× Permeabilization buffer) for 45 min at 4° C., after which the cells were washed twice with Permeabilization buffer and 100p D-DPS was added prior to flow cytometric analysis.

[3] = tested on: DOCK8/STAT3 signaling pathway; test: Protein phosphorylation analysis by intracellular flow cytometry in stimulated B cells; format: cell-based, human; settings: heme 10 μM
Experimental: Protein phosphorylation analysis: B cells were short-term (maximum overnight) stimulated using the same B cell activation cocktail as above in the absence or presence of hemin (10 μM) after which B cells were fixed with the same volume pre-warmed Phosflow Fix buffer I (BD Bioscience) for 10 min at 37° C. After that, cells were washed twice with MACS buffer (400×g, 4° C., 5 min) followed by addition of 0.4 ml Perm buffer Ill (pre-chilled in −20° C., BD Bioscience) for 30 min on ice. After two washes with MACS buffer, samples were stained with staining buffer (anti-Pyk2(pY402), SYK(pY319), SRC(pY418), and STAT3(pY705), 100 fold diluted with MACS buffer) at 4° C. for 45 min, washed and analyzed by flow cytometry.
It has been shown that plasma free-heme can directly bind to DOCK8 protein and inhibit monocyte/macrophage phagocytosis through the DOCK8-Cdc42 signaling pathway. DOCK8/STAT3 signaling pathway activation, leading to phosphorylation of Pky2, SYK, SRC, and STAT3, has also been reported to be critical for B cell activation, although the effect of heme on this activation pathway was not examined. To test whether DOCK8/STAT3 signaling is inhibited by cell-free heme during B cell activation, we analyzed the phosphorylation of Pyk2, SYK, SRC, and STAT3 following short-term stimulation in the presence or absence of heme (10 μM) by intracellular flow cytometric analysis. […]

HO-1 = HO-1 expression in stimulated B cells; format: cell-based, human; settings: stimulated B cells treated with heme 2.5 or 5 μM
From the text: HO-1 is a key enzyme for heme degradation with multiple biologic activities attributed to its enzymatic byproducts. We analyzed HO-1 expression levels in human B cells before and after stimulation with our polyclonal B cell activation cocktail. […] We also found higher HO-1 levels in DOCK8^hi plasma cells (FIG. 8B).

DOCK8 = DOCK8 expression and DOCK8hi/DOCK8lo subsets in stimulated B cells; format: cell-based, human; settings: heme 5 μM
From the text: We next tested the effect of cell-free heme on DOCK8 signaling during B cell differentiation. […] Heme treatment led to inhibition of CD27^hiBlimp-1^+ plasma cell differentiation (FIG. 2D, p=0.0195).

[4] = tested on: splenic B cells from C57BL/6J mice; test: Mouse B cell differentiation in vitro; format: cell-based; settings: 7 days, hemin 2.5 or 5 μM, different doses of quinine
Bach2 = Bach2 levels in human B cells; format: cell-based; settings: in the presence of heme

Structure (SMILES): C=CC1=C(C)c2cc3[n-]c(cc4[n-]c(cc5nc(cc1n2)C(C)=C5C=C)c(C)c4CCC(=O)O)c(CCC(=O)O)c3C.[Fe+2] [heme, iron(III) complex of protoporphyrin IX]
- effect on memory B cell proliferation or differentiation [1]: no effect
- effect on B cell proliferation, Allo(−) versus Allo(+) patients ([2]; 2.5 or 5 μM hemin): did not differ
- DOCK8hi B cells and CD27hiBlimp-1+ plasma cell differentiation ([2]; Allo(+) SCD patients): not
- inhibition of plasmablast B cell differentiation ([2]; Allo(+) SCD patients): 16%±9.7%
- DOCK8hi B cells and CD27hiBlimp-1+ plasma cell differentiation ([2]; Allo(−) SCD patients): inhibited
- inhibition of plasmablast B cell differentiation ([2]; Allo(−) SCD patients): 58.6%±7.3%
- p-STAT3 ([3]; overnight samples): inhibitory effect
- levels of phosphorylated (p)-Pyk2/SYK/SRC/STAT3 ([3]; short-term stimulation (15 min)): significant reduction
- HO-1 expression (HO-1): further induced
- reduction in DOCK8hi subset (DOCK8): 61.6%±6.5%
- reduction in DOCK8lo subset (DOCK8): 34.1%±5.9%
- mouse plasma cell differentiation [4]: did not inhibit
- Bach2 levels (Bach2): no significant change
